The text below walks through data of US9012413B2, “FGF receptor-activating N-acyl octasaccharides, preparation thereof, and therapeutic use thereof” (Sanofi, priority 2009, dated 2015).

Data set [1] in a line: Pharmacokinetics after cutaneous administration to mice, plasma LC/MS-MS. The data set is classed as in vivo. Conditions: OF1 or C57/BL6 mice, 30 mg/kg, single administration. How it is done:
The pharmacokinetic profile of the compounds according to the invention is evaluated after cutaneous administration, to OF1 or C57/BL6 mice, at a concentration of 30 mg/kg. The systemic exposure of the compounds is evaluated after a single administration to the animal anaesthetized beforehand with pentobarbital. The blood is collected from the vena cava and then transferred into plastic tubes containing lithium heparin. After centrifugation (2000×g for 10 minutes at 8° C.), the concentration of the compounds in the plasma is quantified by LC/MS-MS.

The subject of the next data set is BALB/c J mice. The data set is described as follows: Model of cellulose implant in mice (haemoglobin concentration in the implant, angiogenesis). Type of data set: in vivo. The procedure: This model is an adaptation of the model described by Andrade et al. (Microvascular Research, 1997, 54, 253-61) for testing pharmacological products capable of activating the onset of angiogenesis.
The animals (white consanguineous BALB/c J mice) are anaesthetized with a xylazine (Rompun®, 10 mg/kg)/ketamine (Imalgene® 1000, 100 mg/kg) mixture intraperitoneally. The animal's back is shaved and disinfected with Hexomedine®. An air pocket is created subcutaneously on the mouse's back by injecting 5 ml of sterile air. An incision of about 2 cm at the top of the animal's back is made in order to introduce a sterile cellulose implant (disk 1 cm in diameter, 2 mm thick, Cellspon® ref. 0501) impregnated with 50 μl of sterile solution containing the test product. […]
Seven days after inserting the sponge, the mice are sacrificed by means of a lethal dose of pentobarbital sodium (CEVA Santé Animale), administered intraperitoneally. […] On the day of the assay, the tubes are again centrifuged after thawing and the haemoglobin concentration is measured with the Drabkin reagent (Sigma, volume for volume) by reading on a spectrophotometer at 405 nm against a standard range of bovine haemoglobin (Sigma).
The haemoglobin concentration in each sample is expressed in mg/ml from the polynomial regression produced from the range. The results are expressed as a mean value (±sem) for each group. […]

For the substance “Methyl (sodium 2-O-sodium sulfonato-α-L-idopyranosyluronate)-(1→4)-(2-acetamido-2-deoxy-6-O-sodium sulfonato-α-D-glucopyranosyl)-[(1→4)-(sodium 2-O-sodium sulfonato-α-L-idopyranosyluronate)-(1→4)-(2-acetamido-2-deoxy-6-O-sodium sulfonato-α-D-glucopyranosyl)]2-(1→4)-(sodium 2-O-sodium sulfonato-α-L-idopyranosyluronate)-(1→4)-2-acetamido-2-deoxy-6-O-sodium sulfonato-α-D-glucopyranoside [Compound 7]”, in data set [1] (plasma), the “AUC (0-Clast)” value was 22 000 ng · h/mL and the T1/2 was 24 min. In addition, in data set [1] (plasma at 4 hours), the “Plasma conc., t = 4 h” value is 425 ng/mL. In addition, the “specific activity in the cellulose implant model (active at)” value in the data set on BALB/c J mice (BALB/c J mice, subcutaneous cellulose implant, haemoglobin assay after seven days) is 15 ng/site. Also, the “activity relative to the fully sulfated analogue (all —NH-acyl groups replaced with —NH—SO3— groups)” value in the data set with BALB/c J mice (cellulose implant in mice) was “greater than 21%”.
